In series [1] the test system is T47D. Nature of the series: cells. As to conditions: Homo sapiens, 48 h.
Description: Antiproliferative activity against human T47D cells assessed as inhibition of cell growth incubated for 48 hrs by MTT assay
The subject of series [2] is MCF7. In words: cells. As to conditions: Homo sapiens, MCF7, 48 h.
Description: Antiproliferative activity against human MCF7 cells assessed as inhibition of cell growth incubated for 48 hrs by MTT assay
Series [3] relates to MDA-MB-231. In words: cells. The conditions noted are these: Homo sapiens, MDA-MB-231, 48 h.
Description: Antiproliferative activity against human MDA-MB-231 cells assessed as inhibition of cell growth incubated for 48 hrs by MTT assay
The nature of series [4]: Cytotoxicity against human HEK293 cells incubated for 48 hrs by MTT assay. It is filed as toxicity, cell-based. In general terms: Tetrazolium assays rely on reduction of a dye to a coloured formazan, in cell work by metabolically active cells.

What is called IC50 is the point on the concentration scale where inhibition reaches its midpoint. Read a low IC50 as inhibition by little substance.

On to `Cc1ccc(Cn2cc(-c3nnn[nH]3)c3ccccc32)cc1`, for which the IC50 worked out at 14.1 µM in series [1], 9.99 µM in series [2] and 13.8 µM in series [3].
With `c1ccc(Cn2cc(-c3nnn[nH]3)c3ccccc32)cc1`, the IC50 in series [1] was 24.4 µM; in series [2] it was > 25 µM; in series [3] it was 16.6 µM.
As to `Cc1ccc(Cn2cc(-c3nnnn3Cc3ccccc3)c3ccccc32)cc1`, the figures for the IC50 in series [1], in series [2] and in series [3] were 14.5 µM, 9.93 µM and 9.62 µM, respectively.
On the same counts, the results for `Fc1ccc(Cn2nnc(-c3cn(Cc4ccccc4)c4ccccc34)n2)cc1` are 17.8 µM, 22.7 µM and 12.9 µM.
For the molecule `Cc1ccc(Cn2cc(-c3nnn(Cc4ccc(F)cc4)n3)c3ccccc32)cc1`, the IC50 in series [1] was found to be 15.8 µM; in series [2], 13.3 µM; in series [3], 13.1 µM.
On the same counts, the results for `Cc1ccc(Cn2nnc(-c3cn(Cc4ccccc4)c4ccccc34)n2)cc1` are 10.1 µM, 11.3 µM and 13.4 µM.
`c1ccc(Cn2nnc(-c3cn(Cc4ccccc4)c4ccccc34)n2)cc1`: the concentration for half-maximal inhibition (IC50) in series [1] was 13.5 µM; in series [2], 9.24 µM; in series [3] it was 14.7 µM.
As for `COc1cccc(Cn2nnc(-c3cn(Cc4ccccc4)c4ccccc34)n2)c1`, the IC50 in series [1] was determined as 16.5 µM; in series [2] it was 3.08 µM; in series [3], 15.9 µM.
On the same counts, the results for `Cc1ccc(Cn2cc(-c3nnn(Cc4ccc(Cl)c(Cl)c4)n3)c3ccccc32)cc1` are 23.9 µM, 8.73 µM and 14.9 µM.
On the same counts, the results for `Clc1cccc(Cn2nnc(-c3cn(Cc4ccccc4)c4ccccc34)n2)c1` are 11.7 µM, 14.2 µM and 18.8 µM.
With `Clc1ccc(Cn2nnc(-c3cn(Cc4ccccc4)c4ccccc34)n2)cc1`, the IC50 at 48 h in series [4] was 109 µM. The IC50 is 3.83 µM in series [1], 7.83 µM in series [2] and 15.7 µM in series [3].
In the case of `Cc1ccc(Cn2cc(-c3nnnn3Cc3cccc(Cl)c3)c3ccccc32)cc1`, the figures for the half-maximal inhibitory concentration (IC50) in series [1], in series [2] and in series [3] were 20 µM, 14.8 µM and 8.52 µM, respectively.
On to `Cc1ccc(Cn2cc(-c3nnn(Cc4ccccc4)n3)c3ccccc32)cc1`, for which the IC50 in series [1] came to 15.8 µM; in series [2], 11.9 µM; in series [3], 8.2 µM.
On the same counts, the results for `Cc1ccc(Cn2cc(-c3nnnn3Cc3ccc(Cl)c(Cl)c3)c3ccccc32)cc1` are 9.01 µM, 10.2 µM and 12.4 µM.
With `Cc1ccc(Cn2nnc(-c3cn(Cc4ccc(C)cc4)c4ccccc34)n2)cc1`, the values for the IC50 in series [1], in series [2] and in series [3] were > 25 µM, > 25 µM and 15.8 µM, respectively.
Regarding `Cc1c(-c2ccc(O)cc2)n(Cc2ccc(OCCN3CCCCCC3)cc2)c2ccc(O)cc12` [BAZEDOXIFENE], the IC50 at 48 h in series [4] was found to be 38.5 µM. Besides, the figures for the half-inhibitory concentration (IC50) in series [1], in series [2] and in series [3] were 14.2 µM, 7.31 µM and 6.73 µM, respectively.
With `Clc1ccc(Cn2nnc(-c3cn(Cc4ccccc4)c4ccccc34)n2)cc1Cl`, the half-inhibitory concentration (IC50) at 48 h in series [4] was > 125 µM. Besides, the IC50 turned out to be 10 µM in series [1], 7.95 µM in series [2] and 19.4 µM in series [3].
Regarding `Cc1ccc(Cn2cc(-c3nnn(Cc4cccc(Cl)c4)n3)c3ccccc32)cc1`, the IC50 was 14.2 µM in series [1], 13.2 µM in series [2] and 12.8 µM in series [3].
Consider `Cc1ccc(Cn2cc(-c3nnn(Cc4ccc(Cl)cc4)n3)c3ccccc32)cc1`, for which the IC50 in series [1] was 18.8 µM; in series [2], 16.4 µM; in series [3], 11.6 µM.
On the same counts, the results for `Clc1ccc(Cn2nnc(-c3cn(Cc4ccccc4)c4ccccc34)n2)c(Cl)c1` are 10.9 µM, 12.7 µM and 7.69 µM.
On the same counts, the results for `Cc1ccc(Cn2cc(-c3nnnn3Cc3ccc(Cl)cc3Cl)c3ccccc32)cc1` are 8.15 µM, 8.32 µM and 11.2 µM.
On the same counts, the results for `COc1cccc(Cn2nnc(-c3cn(Cc4ccc(C)cc4)c4ccccc34)n2)c1` are > 25 µM, 15.1 µM and 12.1 µM.
Regarding `Cc1ccc(Cn2cc(-c3nnn(Cc4ccc(Cl)cc4Cl)n3)c3ccccc32)cc1`, the IC50 is 10.6 µM in series [1], 16.6 µM in series [2] and 16.7 µM in series [3].
On the same counts, the results for `Cc1ccc(Cn2nnnc2-c2cn(Cc3ccc(C)cc3)c3ccccc23)cc1` are 23.7 µM, 20.6 µM and 9.72 µM.
